Structures can show the parent of a compound that is named as a salt.
Tests used:
[1] = target: T1, ZAP-70 (Homo sapiens, UniProt P43403); experiment: ZAP-70 kinobeads assay; assay type: binding; details: competition with immobilized aminopyrido-pyrimidine ligand 24 in cell lysate; ZAP-70 detected by dot blot
T1 construct: endogenous in cells; host or cells: cell lysate
T1 sequence (P43403 1-619): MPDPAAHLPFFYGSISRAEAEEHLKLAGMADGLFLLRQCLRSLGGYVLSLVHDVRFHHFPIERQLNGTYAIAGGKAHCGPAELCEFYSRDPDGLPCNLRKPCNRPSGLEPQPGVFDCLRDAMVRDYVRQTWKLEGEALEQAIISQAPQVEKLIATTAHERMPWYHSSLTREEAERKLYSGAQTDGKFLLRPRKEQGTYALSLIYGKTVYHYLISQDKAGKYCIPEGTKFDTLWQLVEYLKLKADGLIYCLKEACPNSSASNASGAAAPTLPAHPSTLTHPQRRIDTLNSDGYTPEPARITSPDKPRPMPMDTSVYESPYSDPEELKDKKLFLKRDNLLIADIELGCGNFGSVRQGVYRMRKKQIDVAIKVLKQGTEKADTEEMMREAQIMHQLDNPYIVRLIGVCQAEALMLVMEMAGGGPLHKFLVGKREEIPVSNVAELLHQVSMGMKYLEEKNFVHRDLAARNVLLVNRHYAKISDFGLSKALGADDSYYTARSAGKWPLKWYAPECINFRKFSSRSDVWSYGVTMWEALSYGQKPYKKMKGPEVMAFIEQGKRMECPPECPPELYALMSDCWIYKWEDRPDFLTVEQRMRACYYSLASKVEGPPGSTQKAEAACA
In short: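 Cell lysate aliquots incubated with test compounds at various concentrations plus affinity beads carrying immobilized aminopyrido-pyrimidine ligand 24. Bead-captured proteins eluted; ZAP-70 quantified by specific antibody dot blot with infrared detection.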

[2] = system: Jurkat cells; experiment: Calcium release assay (Fluo-4 flow cytometry after anti-CD3 stimulation); assay type: cell-based; details: Homo sapiens, Jurkat cell line J77, anti-CD3 activation, read-out: IC50 (Calcium ion release in cells)
Procedure: Compounds of the present invention were tested in a Calcium release assay as described below.
The development of fluorescent probes makes it possible to measure the concentration of intracellular free Calcium ions in single living cells. Cells are first loaded with a cell-permeable Ca^2+-sensitive dye, then the test compound is added. Finally, cells are activated through the T cell receptor with an anti-CD3 antibody shortly before data acquisition on the flow cytometer. The release of Ca^2+ is measured as a function of time after cell stimulation. This protocol describes the flow cytometry method using the Fluo-3 and Fluo-4 dyes (Minta et al., 1989, J. Biol. Chem. 264(14):8171-8178) to measure the intracellular Ca^2+ concentration in Jurkat cells (see also June et al., 1997, Measurement of intracellular calcium ions by flow cytometry. In: Current Protocols in Cytometry (1997) Unit 9.8.1-9.8.19, John Wiley & Sons, Inc.).
In general, cells should be handled in the shortest time possible to assure their stability. Therefore the preparation of all materials in advance is highly recommended as well as using any incubation or centrifugation time to prepare the next steps (e.g. preparing compound dilution or starting the flow cytometer).
1) Prepare a work plan indicating the number of samples to be analyzed including controls. 2) Cell harvest: Centrifuge 50 to 100 ml of a Jurkat cell culture for 5 minutes at 1100 rpm. Discard the supernatant, pool the resuspended cell pellets in a single 50 ml Falcon tube, and fill up to 50 ml with PBS—CaCl2 (without FCS). Centrifuge again sample again. 3) Resuspend cell pellet with PBS—CaCl2 (without FCS) to achieve a concentration not lower than 10×10^6 cells/ml. Prepare an adequate dilution to evaluate the cell concentration and count the cells. 4) Separate the volume of cells needed to be loaded (for example […] for 20 samples) in a 50 ml Falcon tube. Fill up with PBS—CaCl2 to 900 μl for 107 cells. 5) Prepare in the dark a 1:1 mix of FLUO-4 (1 mM)+Pluronic F-127 (20%). 5 μl of Fluo-4 are needed per 107 cells. 6) Prepare a 1/10 dilution of this mix with PBS—CaCl2 (in the dark; for example 5 μl Fluo-4+5 μl F-127 completed to 100 μl). 7) Add the dye solution to the cells. […] 8) Incubate the sample for 30 minutes in a cell incubator (37° C., 5% CO2). Mix from time to time. 9) During this time prepare the adequate test compound dilution in PBS—CaCl2 (with 10% FCS). The solution should be 10 times more concentrated than the desired final concentration. Vortex each dilution. Prepare also the antibody dilutions: anti-CD3 (1/200) and GAM (1/25). 10) Label FACS tubes and distribute in the corresponding tube 30 μl of the compound dilution or only buffer for the control tubes. 11) After 30 minutes of incubation wash the cells twice in PBS—CaCl2 (with 10% FCS). During the washing steps make sure that the flow cytometer is already “ON” in order to warm the laser. 12) Resuspend the cell pellet in PBS—CaCl2 (with 10% FCS) at a concentration of 1.5×10^6 cells/ml. 13) Distribute 300 μl of cell suspension into the FACS tubes and mix gently. The compound incubation is starting. Keep samples at room temperature in the dark. 14) Open the settings of the cytometer. It is advised to have a template ready which is used for all measurements. Settings of the machine should also be the same from one experiment to the other which permits to evaluate the reproducibility of the cell preparation. 15) In Setup modus control your cell preparation on the cytometer. Cells should fit in the pre-defined gates. 16) During the compound incubation time, check also that cells are responding to the anti-CD3 activation as expected. Set a timer at 8 sec. Add 6 μl of anti-CD3 dilution (0.2 μg/ml final) and mix gently. Add 1 μl of GAM dilution (0.75 μg/ml final) and mix gently. Incubate the samples in water bath at 37° C. while starting timer. After 8 seconds of incubation, acquire data at medium speed for 200 seconds. […]

IC50 [1] [nM]	IC50 [2] [nM]	Compound
< 100	< 100	COc1ccc(Nc2nc(Nc3cc(OC)c(OC)c(OC)c3)ncc2Cl)c(NS(C)(=O)=O)c1 [Example 152, N-(2-(5-chloro-2-(3,4,5-trimethoxyphenylamino)pyrimidin-4-ylamino)-5-methoxyphenyl)methanesulfonamide]
100 to 1000	100 to 1000	CCOc1ccc(Nc2nc(Nc3cc(OC)c(OC)c(OC)c3)ncc2F)c(NS(C)(=O)=O)c1C [Example 168, N-(3-ethoxy-6-(5-fluoro-2-(3,4,5-trimethoxyphenylamino)pyrimidin-4-ylamino)-2-methylphenyl)methanesulfonamide]
1000 to 10000	100 to 1000	COc1cc(Nc2ncc(F)c(Nc3ccccc3NS(=O)(=O)c3cccs3)n2)cc(OC)c1OC [Example 50, N-(2-(5-fluoro-2-(3,4,5-trimethoxyphenylamino)pyrimidin-4-ylamino)phenyl)thiopehene-2-sulfonamide]
< 100	100 to 1000	CS(=O)(=O)Nc1ccccc1Nc1nc(Nc2cccc(OCCN3CCCC3)c2)ncc1F [Example 95, N-(2-(5-fluoro-2-(3-(2-(pyrrolidin-1-yl)ethoxy)phenylamino)pyrimidin-4-ylamino)phenyl)methanesulfonamide]
100 to 1000	100 to 1000	CCNC(=O)COc1cccc(Nc2ncc(F)c(Nc3ccccc3NS(C)(=O)=O)n2)c1 [Example 101, N-ethyl-2-(3-(5-fluoro-4-(2-(methylsulfonamido)phenylamino)pyrimidin-2-ylamino)phenoxy)acetamide]
< 100	< 100	CS(=O)(=O)Nc1ccccc1Nc1nc(Nc2cccc(OCCO)c2)ncc1Cl [Example 123, N-(2-(5-chloro-2-(3-(2-hydroxyethoxy)phenylamino)pyrimidin-4-ylamino)phenyl)methanesulfonamide]
< 100	< 100	CCN(CC)CCOc1ccc(Nc2ncc(Cl)c(Nc3ccccc3NS(C)(=O)=O)n2)cc1 [Example 127, N-(2-(5-chloro-2-(4-(2-(diethylamino)ethoxy)phenylamino)pyrimidin-4-ylamino)phenyl)methanesulfonamide]
100 to 1000	< 100	CS(=O)(=O)Nc1ccccc1Nc1nc(Nc2cccc(OCCO)c2)ncc1F [Example 78, N-(2-(5-fluoro-2-(3-(2-hydroxyethoxy)phenylamino)pyrimidin-4-ylamino)phenyl)methanesulfonamide]
< 100	< 100	Cc1cccc(Nc2nc(Nc3cccc(OCCN4CCCCC4)c3)ncc2Cl)c1NS(C)(=O)=O [Example 128, N-(2-(5-chloro-2-(3-(2-(piperidin-1-yl)ethoxy)phenylamino)pyrimidin-4-ylamino)-6-methylphenyl)methanesulfonamide]
< 100	100 to 1000	COc1cc(Nc2ncc(Cl)c(Nc3ccccc3NS(C)(=O)=O)n2)ccc1OCCN1CCCCC1 [Example 142, N-(2-(5-chloro-2-(3-methoxy-4-(2-(piperidin-1-yl)ethoxy)phenylamino)pyrimidin-4-ylamino)phenyl)methanesulfonamide hydrochloride]
< 100	< 100	CN1CCN(C)C(COc2cccc(Nc3ncc(Cl)c(Nc4ccccc4NS(C)(=O)=O)n3)c2)C1 (stereo not shown) [Example 147, N-(2-(5-chloro-2-(3-((1,4-dimethylpiperazin-2-yl)methoxy)phenylamino)pyrimidin-4-ylamino)phenyl)methanesulfonamide]
100 to 1000	100 to 1000	COc1cc(Nc2ncc(F)c(Nc3ccc(N4CCOCC4)cc3NS(C)(=O)=O)n2)cc(OC)c1OC [Example 171, N-(2-(5-fluoro-2-(3,4,5-trimethoxyphenylamino)pyrimidin-4-ylamino)-5-morpholinophenyl)methanesulfonamide]
100 to 1000	100 to 1000	CS(=O)(=O)Nc1ccccc1Nc1nc(Nc2ccc(N3CCCCC3)cc2)ncc1Br [Example 215, N-(2-(5-bromo-2-(4-(piperidin-1-yl)phenylamino)pyrimidin-4-ylamino)phenyl)methanesulfonamide]
< 100	< 100	COc1ccc(Nc2ncc(Br)c(Nc3ccccc3NS(C)(=O)=O)n2)cc1OC [Example 107, N-(2-(5-bromo-2-(3,4-dimethoxyphenylamino)pyrimidin-4-ylamino)phenyl)methanesulfonamide]
< 100	< 100	COc1cc(Nc2ncc(Cl)c(Nc3ccccc3NS(C)(=O)=O)n2)ccc1OCCN1CCCC1 [Example 141, N-(2-(5-chloro-2-(3-methoxy-4-(2-(pyrrolidin-1-yl)ethoxy)phenylamino)pyrimidin-4-ylamino)phenyl)methanesulfonamide]
< 100	100 to 1000	CCc1cccc(Nc2nc(Nc3cc(OC)c(OC)c(OC)c3)ncc2F)c1NS(C)(=O)=O [Example 169, N-(2-ethyl-6-(5-fluoro-2-(3,4,5-trimethoxyphenylamino)pyrimidin-4-ylamino)phenyl)methanesulfonamide]
100 to 1000	100 to 1000	COc1cc(Nc2ncc(F)c(Nc3ccc(C)c(C)c3NS(C)(=O)=O)n2)cc(OC)c1OC [Example 165, N-(6-(5-fluoro-2-(3,4,5-trimethoxyphenylamino)pyrimidin-4-ylamino)-2,3-dimethylphenyl)methanesulfonamide]
< 100	< 100	CCOc1ccc(Nc2nc(Nc3cc(OC)c(OC)c(OC)c3)ncc2F)c(NS(C)(=O)=O)c1 [Example 175, N-(5-ethoxy-2-(5-fluoro-2-(3,4,5-trimethoxyphenylamino)pyrimidin-4-ylamino)phenyl)methanesulfonamide]
100 to 1000	100 to 1000	CS(=O)(=O)Nc1ccccc1Nc1nc(Nc2ccc(OCCCN3CCCC3)cc2)ncc1F [Example 92]
	100 to 1000	COc1cc(Nc2ncc(F)c(Nc3cccc(NS(=O)(=O)c4cccnc4)c3)n2)cc(OC)c1OC [Example 58, N-(3-(5-fluoro-2-(3,4,5-trimethoxyphenylamino)pyrimidin-4-ylamino)phenyl)pyridine-3-sulfonamide]
	100 to 1000	COc1cc(Nc2ncc(F)c(Nc3ccc(NS(=O)(=O)c4ccccc4)cc3)n2)cc(OC)c1OC [Example 44, N-(4-(5-fluoro-2-(3,4,5-trimethoxyphenylamino)pyrimidin-4-ylamino)phenyl)benzenesulfonamide]
